Data published in patent US6706663B2, “Herbicidal 3-heterocyclic substituted benzisothiazole and benzisoxazole compounds” (Wyeth, priority 2000, dated 2004).

Experiments:
[1] = tested on: TRZAWR (Wheat, Winter, cv Riband); experiment: Preemergence herbicidal evaluation; type: in vivo, Triticum aestivum; conditions: preemergence, rated 4-5 weeks after treatment
Method in brief: (§1)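 Steps: mix seeds with potting soil; plant on ~1 inch soil per cup; spray compound in aqueous acetone; hold on greenhouse benches with routine watering; rate 0–9 visually against control at 4–5 weeks.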

GALAP (Galium aparine) = experiment: Preemergence herbicidal evaluation; type: in vivo; conditions: preemergence, rated 4-5 weeks after treatment
Method in brief: as §1

[2] = tested on: AMBEL (Ambrosia artemisifolia); experiment: Postemergence herbicidal evaluation; type: in vivo, L.
Method in brief: (§2)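 Visual 0–9 injury scores versus control plants, covering stand, vigour, malformation, size, chlorosis and general appearance, taken four to five weeks post-spray and averaged over replicate tests. Plants were sprayed at roughly two weeks old and held on greenhouse benches.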

[3] = tested on: CHEAL (Chenopodium album); experiment: Postemergence herbicidal evaluation; type: in vivo, L.
Method in brief: as §2

[4] = tested on: CASOB (Cassia obtusifolia); experiment: Postemergence herbicidal evaluation; type: in vivo, L.
Method in brief: as §2

[5] = tested on: ABUTH (Abutilon theophrasti); experiment: Preemergence herbicidal evaluation; type: in vivo, Medic.; conditions: preemergence, rated 4-5 weeks after treatment
[6] = tested on: GLXMAW (Soybean, Williams); experiment: Preemergence herbicidal evaluation; type: in vivo, Glycine max, (L.) Merr. cv Williams; conditions: preemergence, rated 4-5 weeks after treatment
[7] = tested on: TRZAWR (Wheat, Winter, cv Riband); experiment: Postemergence herbicidal evaluation; type: in vivo, Triticum aestivum
Method in brief: as §2

[8] = tested on: CYPSE (Cyperus serotinus); experiment: Flooded paddy, preemergence weed control; type: in vivo, Rottb.; conditions: rated 3-4 weeks after treatment, 0-9 rating scale
Method in brief: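 Herbicidal effect was scored visually on a 0–9 scale against an untreated control 3–4 weeks after treatment. Compounds were applied preemergence as 50/50 v/v aqueous/acetone mixtures into flood water (1.5–3 cm deep over silt loam), at roughly 0.0080 to 0.1250 kg/ha active ingredient.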

ZEAMX (Corn, Field) = experiment: Preemergence herbicidal evaluation; type: in vivo, Zea mays, L.; conditions: preemergence, rated 4-5 weeks after treatment

Compound | TRZAWR preemergence herbicidal rating ([1]; Rate 0.0620 kg/ha) | TRZAWR preemergence herbicidal rating ([1]; Rate 0.1250 kg/ha) | TRZAWR preemergence herbicidal rating ([1]; Rate 0.2500 kg/ha) | GALAP preemergence herbicidal rating (GALAP (Galium aparine); Rate 0.0620 kg/ha) | GALAP preemergence herbicidal rating (GALAP (Galium aparine); Rate 0.1250 kg/ha) | GALAP preemergence herbicidal rating (GALAP (Galium aparine); Rate 0.2500 kg/ha) | Postemergence herbicidal rating, AMBEL ([2]; rate 0.0320 kg/ha) | Postemergence herbicidal rating, AMBEL ([2]; rate 0.0620 kg/ha) | Postemergence herbicidal rating, CHEAL ([3]; rate 0.0320 kg/ha) | Postemergence herbicidal rating, CHEAL ([3]; rate 0.0620 kg/ha) | Postemergence herbicidal rating, CASOB ([4]; rate 0.0320 kg/ha) | Postemergence herbicidal rating, CASOB ([4]; rate 0.0620 kg/ha) | ABUTH preemergence herbicidal rating ([5]; Rate 0.0620 kg/ha) | ABUTH preemergence herbicidal rating ([5]; Rate 0.1250 kg/ha) | ABUTH preemergence herbicidal rating ([5]; Rate 0.2500 kg/ha) | GLXMAW preemergence herbicidal rating ([6]; Rate 0.0620 kg/ha) | GLXMAW preemergence herbicidal rating ([6]; Rate 0.1250 kg/ha) | GLXMAW preemergence herbicidal rating ([6]; Rate 0.2500 kg/ha) | Postemergence herbicidal rating, TRZAWR ([7]; rate 0.0320 kg/ha) | Postemergence herbicidal rating, TRZAWR ([7]; rate 0.0620 kg/ha) | other results
Cc1ccc(-c2nsc3ccc(N4C(=O)C5=C(CCCC5)C4=O)cc23)s1 [Compound 20, N-[3-(5-methyl-2-thienyl)-1,2-benzisothiazol-5-yl]-1-cyclohexene-1,2-dicarboximide] | 0.0 | 0.0 | 0.0 | 0.0 | 0.0 | 3.0 | 6.0 | 6.0 | 3.0 | 5.0 | 1.0 | 1.0 | 1.0 | 2.0 | 4.0 | 0.0 | 0.0 | 0.0 | 3.5 | 4.0 | Postemergence herbicidal rating, AMBEL ([2]; rate 0.1250 kg/ha): 9.0; Postemergence herbicidal rating, CHEAL ([3]; rate 0.1250 kg/ha): 5.0; Postemergence herbicidal rating, CASOB ([4]; rate 0.1250 kg/ha): 1.0; Postemergence herbicidal rating, TRZAWR ([7]; rate 0.1250 kg/ha): 4.5; herbicidal rating, CYPSE ([8]; rate 0.0320 kg/ha): 4.0; herbicidal rating, CYPSE ([8]; rate 0.1250 kg/ha): 7.0; ZEAMX preemergence herbicidal rating (ZEAMX (Corn, Field); Rate 0.0620 kg/ha): 0.0; ZEAMX preemergence herbicidal rating (ZEAMX (Corn, Field); Rate 0.1250 kg/ha): 0.0; ZEAMX preemergence herbicidal rating (ZEAMX (Corn, Field); Rate 0.2500 kg/ha): 0.0
Cc1ccsc1-c1nsc2ccc(-n3c(=O)cc(C(F)(F)F)n(C)c3=O)cc12 [Compound 4, 1-methyl-3-[3-(3-methyl-2-thienyl)-1,2-benzisothiazol-5-yl]-6-(trifluoromethyl)uracil] | 1.2 | 2.5 | 4.3 | 5.0 | 8.0 | 9.0 | 8.1 | 8.3 | 9.0 | 9.0 | 5.2 | 6.2 | 7.8 | 8.9 | 9.0 | 2.7 | 4.4 | 6.0 | 3.7 | 4.2 | Postemergence herbicidal rating, AMBEL ([2]; rate 0.1250 kg/ha): 9.0; Postemergence herbicidal rating, CHEAL ([3]; rate 0.1250 kg/ha): 9.0; Postemergence herbicidal rating, CASOB ([4]; rate 0.1250 kg/ha): 9.0; Postemergence herbicidal rating, TRZAWR ([7]; rate 0.1250 kg/ha): 5.2; herbicidal rating, CYPSE ([8]; rate 0.0080 kg/ha): 0.0; herbicidal rating, CYPSE ([8]; rate 0.0320 kg/ha): 6.5; herbicidal rating, CYPSE ([8]; rate 0.1250 kg/ha): 9.0; ZEAMX preemergence herbicidal rating (ZEAMX (Corn, Field); Rate 0.0620 kg/ha): 3.2; ZEAMX preemergence herbicidal rating (ZEAMX (Corn, Field); Rate 0.1250 kg/ha): 4.2; ZEAMX preemergence herbicidal rating (ZEAMX (Corn, Field); Rate 0.2500 kg/ha): 5.4
Cn1c(C(F)(F)F)cc(=O)n(-c2ccc3snc(C4SCCN4C(=O)c4ccccc4)c3c2)c1=O (stereo not drawn) [Compound 30, 3-benzoyl-2-[5-[3,6-dihydro-3-methyl-2,6-dioxo-4-(trifluoromethyl)-1(2H)-pyrimidinyl]-1,2-benzisothiazol-3-yl]thiazolidine] | 0.0 | 2.0 | 6.0 | 0.0 | 7.0 | 9.0 | 4.0 | 9.0 | 4.0 | 9.0 | 0.0 | 2.0 | 9.0 | 9.0 | 9.0 | 1.0 | 0.0 | 5.0 | 4.5 | 4.5 | herbicidal rating, CYPSE ([8]; rate 0.0320 kg/ha): 0.0; herbicidal rating, CYPSE ([8]; rate 0.1250 kg/ha): 3.0; ZEAMX preemergence herbicidal rating (ZEAMX (Corn, Field); Rate 0.0620 kg/ha): 0.5; ZEAMX preemergence herbicidal rating (ZEAMX (Corn, Field); Rate 0.1250 kg/ha): 3.5; ZEAMX preemergence herbicidal rating (ZEAMX (Corn, Field); Rate 0.2500 kg/ha): 5.5
